Assay results published in patent US11724992B2 (Novartis AG, priority 2017, dated 2023).

Each molecule was assayed on IL-1β production in PMA-differentiated THP-1 cells (assay: IL-1β production in PMA-differentiated THP-1 cells stimulated with gramicidin (hTHP-1 assay, 2% fetal bovine serum; Procedures 1-3)). Settings: hTHP-1 assay containing 2% fetal bovine serum; class symbols; read-out: hTHP-1 IC50 (Average IC50 of compounds in hTHP-1 assay).
Type: cell-based, human
Protocol: The following protocol is suitable for testing the activity of the compounds disclosed herein.
Procedure 1: IL-1β Production in PMA-Differentiated THP-1 Cells Stimulated with Gramicidin
THP-1 cells were purchased from the American Type Culture Collection and sub-cultured according to instructions from the supplier. Cells were cultured in complete RPMI 1640 (containing 10% heat inactivated FBS, penicillin (100 units/ml) and streptomycin (100 μg/ml)), and maintained in log phase prior to experimental setup. Prior to the experiment, compounds were dissolved in dimethyl sulfoxide (DMSO) to generate a 30 mM stock. The compound stock was first pre-diluted in DMSO to 3, 0.34, 0.042 and 0.0083 mM intermediate concentrations and subsequently spotted using Echo550 liquid handler into an empty 384-well assay plate to achieve desired final concentration (e.g. 100, 33, 11, 3.7, 1.2, 0.41, 0.14, 0.046, 0.015, 0.0051, 0.0017 μM). DMSO was backfilled in the plate to achieve a final DMSO assay concentration of 0.37%. The plate was then sealed and stored at room temperature until required.
THP-1 cells were treated with PMA (Phorbol 12-myristate 13-acetate) (20 ng/ml) for 16-18 hours. On the day of the experiment the media was removed and adherent cells were detached with trypsin for 5 minutes. Cells were then harvested, washed with complete RPMI 1640, spun down, and resuspended in RPMI 1640 (containing 2% heat inactivated FBS, penicillin (100 units/ml) and streptomycin (100 μg/ml). The cells were plated in the 384-well assay plate containing the spotted compounds at a density of 50,000 cells/well (final assay volume 50 μl). Cells were incubated with compounds for 1 hour and then stimulated with gramicidin (5 μM) (Enzo) for 2 hours. Plates were then centrifuged at 340 g for 5 min. Cell free supernatant (40 μL) was collected using a 96-channel PlateMaster (Gilson) and the production of IL-1β was evaluated by HTRF (cisbio). The plates were incubated for 18 h at 4° C. and read using the preset HTRF program (donor emission at 620 nm, acceptor emission at 668 nm) of the SpectraMax i3x spectrophotometer (Molecular Devices, software SoftMax 6). A vehicle only control and a dose titration of CRID3 (100-0.0017 μM) were run concurrently with each experiment.
Procedure 2: IL-1β Production in PMA-Differentiated THP-1 Cells Stimulated with Gramicidin
THP-1 cells were purchased from the American Type Culture Collection and sub-cultured according to instructions from the supplier. Prior to experiments, cells were cultured in complete RPMI 1640 (containing 10% heat inactivated FBS, penicillin (100 units/ml) and streptomycin (100 μg/ml)), and maintained in log phase prior to experimental setup. Prior to the experiment THP-1 were treated with PMA (Phorbol 12-myristate 13-acetate) (20 ng/ml) for 16-18 hours. Compounds were dissolved in dimethyl sulfoxide (DMSO) to generate a 30 mM stock. On the day of the experiment the media was removed and adherent cells were detached with trypsin for 5 minutes. Cells were then harvested, washed with complete RPMI 1640, spun down, resuspended in RPMI 1640 (containing 2% heat inactivated FBS, penicillin (100 units/ml) and streptomycin (100 μg/ml). The cells were plated in a 384-well plate at a density of 50,000 cells/well (final assay volume 50 μl). Compounds were first dissolved in assay medium to obtain a 5× top concentration of 500 μM. 10 step dilutions (1:3) were then undertaken in assay medium containing 1.67% DMSO. 5× compound solutions were added to the culture medium to achieve desired final concentration (e.g. 100, 33, 11, 3.7, 1.2, 0.41, 0.14, 0.046, 0.015, 0.0051, […]). Final DMSO concentration was at 0.37%. Cells were incubated with compounds for 1 hour and then stimulated with gramicidin (5 μM) (Enzo) for 2 hours. Plates were then centrifuged at 340 g for 5 min. Cell free supernatant (40 μL) was collected using a 96-channel PlateMaster (Gilson) and the production of IL-1β was evaluated by HTRF (cisbio). […]

IC50 [nM]	Structure (SMILES)
5000 to 30000	CC(C)(O)c1cccc(S(N)(=O)=NC(=O)Nc2c3c(c(F)c4c2CCC4)CCC3)c1 (single isomer, unassigned) [Example 129]
40 to 200	CC(C)c1cc(C#N)cc(C(C)C)c1NC(=O)N=S(N)(=O)c1ncc(C(C)(C)O)s1 (single isomer, unassigned) [Example 130]
1000 to 5000	CC(C)c1cc(C#N)cc(C(C)C)c1NC(=O)N=S(N)(=O)c1ncc(C(C)(C)O)s1 (single isomer, unassigned) [Example 131]
1000 to 5000	CC(C)c1cc(OC(F)F)cc(C(C)C)c1NC(=O)N=S(N)(=O)c1ncc(C(C)(C)O)s1 (single isomer, unassigned) [Example 136]
40 to 200	CC(C)c1cc(OC(F)F)cc(C(C)C)c1NC(=O)N=S(N)(=O)c1ncc(C(C)(C)O)s1 (single isomer, unassigned) [Example 137]
1000 to 5000	CC(C)c1cc(F)cc(C(C)C)c1NC(=O)N=S(N)(=O)c1ncc(C(C)(C)O)s1 (single isomer, unassigned) [Example 138]
40 to 200	CC(C)c1cc(F)cc(C(C)C)c1NC(=O)N=S(N)(=O)c1ncc(C(C)(C)O)s1 (single isomer, unassigned) [Example 139]
8 to 40	CC(C)c1cc(F)cc(C(C)C)c1NC(=O)N=S(N)(=O)c1cc(C(C)(C)O)cs1 (single isomer, unassigned) [Example 140]
1000 to 5000	CC(C)c1cc(F)cc(C(C)C)c1NC(=O)N=S(N)(=O)c1cc(C(C)(C)O)cs1 (single isomer, unassigned) [Example 141]
40 to 200	CC(C)(O)c1ccc(S(N)(=O)=NC(=O)Nc2c3c(c(Cl)c4c2CCC4)CCC3)c(F)c1 (single isomer, unassigned) [Example 142]
5000 to 30000	CC(C)(O)c1ccc(S(N)(=O)=NC(=O)Nc2c3c(c(Cl)c4c2CCC4)CCC3)c(F)c1 (single isomer, unassigned) [Example 143]
1000 to 5000	CC(C)(O)c1ncc(S(N)(=O)=NC(=O)Nc2c3c(c(C#N)c4c2CCC4)CCC3)s1 (single isomer, unassigned) [Example 146]
200 to 1000	CC(C)(O)c1ncc(S(N)(=O)=NC(=O)Nc2c3c(c(C#N)c4c2CCC4)CCC3)s1 (single isomer, unassigned) [Example 147]
< 8	Cc1oc(S(N)(=O)=NC(=O)Nc2c3c(c(F)c4c2CCC4)CCC3)cc1C(C)(C)O (single isomer, unassigned) [Example 148]
200 to 1000	Cc1oc(S(N)(=O)=NC(=O)Nc2c3c(c(F)c4c2CCC4)CCC3)cc1C(C)(C)O (single isomer, unassigned) [Example 149]
5000 to 30000	CC(C)(O)c1cccc(S(N)(=O)=NC(=O)Nc2c3c(cc4c2CCC4)CCC3)c1 (single isomer, unassigned) [Example 150]
200 to 1000	CC(C)(O)c1cccc(S(N)(=O)=NC(=O)Nc2c3c(cc4c2CCC4)CCC3)c1 (single isomer, unassigned) [Example 151]
40 to 200	CC(C)(O)c1ccc(S(N)(=O)=NC(=O)Nc2c3c(c(F)c4c2CCC4)CCC3)c(F)c1 (single isomer, unassigned) [Example 152]
1000 to 5000	CC(C)(O)c1ccc(S(N)(=O)=NC(=O)Nc2c3c(c(F)c4c2CCC4)CCC3)c(F)c1 (single isomer, unassigned) [Example 153]
40 to 200	CN(C)Cc1ccc(S(N)(=O)=NC(=O)Nc2c3c(cc4c2CCC4)CCC3)c(F)c1 (single isomer, unassigned) [Example 154]
1000 to 5000	CN(C)Cc1ccc(S(N)(=O)=NC(=O)Nc2c3c(cc4c2CCC4)CCC3)c(F)c1 (single isomer, unassigned) [Example 155]
200 to 1000	CC(C)c1cc(F)cc(C(C)C)c1NC(=O)N=S(N)(=O)c1ccc(C(C)(C)O)s1 (single isomer, unassigned) [Example 156]

IC50 [nM]	Structure (SMILES)
5000 to 30000	CC(C)c1cc(F)cc(C(C)C)c1NC(=O)N=S(N)(=O)c1ccc(C(C)(C)O)s1 (single isomer, unassigned) [Example 157]
1000 to 5000	CC(C)(O)c1ccc(S(N)(=O)=NC(=O)Nc2c3c(c(F)c4c2CCC4)CCC3)c(Cl)c1 (single isomer, unassigned) [Example 158]
5000 to 30000	CC(C)(O)c1ccc(S(N)(=O)=NC(=O)Nc2c3c(c(F)c4c2CCC4)CCC3)c(Cl)c1 (single isomer, unassigned) [Example 159]
200 to 1000	CN(C)Cc1cccc(S(N)(=O)=NC(=O)Nc2c3c(cc4c2CCC4)CCC3)c1 (single isomer, unassigned) [Example 160]
5000 to 30000	CN(C)Cc1cccc(S(N)(=O)=NC(=O)Nc2c3c(cc4c2CCC4)CCC3)c1 (single isomer, unassigned) [Example 161]
200 to 1000	Cc1cc(S(N)(=O)=NC(=O)Nc2c3c(cc4c2CCC4)CCC3)ccc1C(C)(C)O (single isomer, unassigned) [Example 162]
5000 to 30000	Cc1cc(S(N)(=O)=NC(=O)Nc2c3c(cc4c2CCC4)CCC3)ccc1C(C)(C)O (single isomer, unassigned) [Example 163]
8 to 40	Cc1nc(C(C)(C)O)sc1S(N)(=O)=NC(=O)Nc1c2c(cc3c1CCC3)CCC2 (single isomer, unassigned) [Example 164]
1000 to 5000	Cc1nc(C(C)(C)O)sc1S(N)(=O)=NC(=O)Nc1c2c(cc3c1CCC3)CCC2 (single isomer, unassigned) [Example 165]
1000 to 5000	CC(C)(O)c1cc(F)cc(S(N)(=O)=NC(=O)Nc2c3c(c(F)c4c2CCC4)CCC3)c1 (single isomer, unassigned) [Example 170]
200 to 1000	CC(C)(O)c1cc(F)cc(S(N)(=O)=NC(=O)Nc2c3c(c(F)c4c2CCC4)CCC3)c1 (single isomer, unassigned) [Example 171]
200 to 1000	Cc1cc(S(N)(=O)=NC(=O)Nc2c(C(C)C)cc(OC(F)F)cc2C(C)C)sc1C(C)(C)O (single isomer, unassigned) [Example 172]
1000 to 5000	Cc1cc(S(N)(=O)=NC(=O)Nc2c(C(C)C)cc(OC(F)F)cc2C(C)C)sc1C(C)(C)O (single isomer, unassigned) [Example 173]
200 to 1000	CC(C)(O)c1cc(S(N)(=O)=NC(=O)Nc2c3c(c(F)c4c2CCC4)CCC3)ccc1F (single isomer, unassigned) [Example 174]
1000 to 5000	CC(C)(O)c1cc(S(N)(=O)=NC(=O)Nc2c3c(c(F)c4c2CCC4)CCC3)ccc1F (single isomer, unassigned) [Example 175]
8 to 40	Cc1nc(C(C)(C)O)sc1S(N)(=O)=NC(=O)Nc1c2c(c(F)c3c1CCC3)CCC2 (single isomer, unassigned) [Example 176]
1000 to 5000	Cc1nc(C(C)(C)O)sc1S(N)(=O)=NC(=O)Nc1c2c(c(F)c3c1CCC3)CCC2 (single isomer, unassigned) [Example 177]
5000 to 30000	CC(C)(O)c1ccc(S(N)(=O)=NC(=O)Nc2c3c(cc4c2CCC4)CCC3)cc1F (single isomer, unassigned) [Example 178]
1000 to 5000	CC(C)(O)c1ccc(S(N)(=O)=NC(=O)Nc2c3c(cc4c2CCC4)CCC3)cc1F (single isomer, unassigned) [Example 179]
1000 to 5000	CNS(=O)(=NC(=O)Nc1c2c(c(F)c3c1CCC3)CCC2)c1cc(C(C)(C)O)cs1 (single isomer, unassigned) [Example 180]
5000 to 30000	CNS(=O)(=NC(=O)Nc1c2c(c(F)c3c1CCC3)CCC2)c1cc(C(C)(C)O)cs1 (single isomer, unassigned) [Example 181]
